According to patent publication US20190070182A1, “USES OF PYRIMIDO-PYRIDAZINONES TO TREAT CANCER” (Asana Biosciences, LLC, priority 2015, published 2019):
pEC50, pIC50: −log10 of the molar value.

Columns and labels:
[1] = test system: Pfeiffer (DLBCL cell line); experiment: caspase 3/7 apoptosis assay; format: cell-based; settings: Homo sapiens, 24-hour treatment (FIG. 1), read-out: EC50, induced apoptosis (caspase 3/7 assay)
[2] = test system: hematological malignant cell lines (leukemia, lymphoma, multiple myelomas); experiment: antiproliferative activity, hematological malignant cell line panel; format: cell-based; settings: cell line panel representing leukemia, multiple myelomas (FIG. 2)
[3] = test system: DLBCL xenograft derived from Pfeiffer cell line; experiment: DLBCL xenograft mouse model (Pfeiffer); format: in vivo; settings: Pfeiffer cell line (FIG. 3)
[4] = test system: DLBCL xenograft derived from SU-DHL-6 cell line; experiment: DLBCL xenograft mouse model (SU-DHL-6); format: in vivo; settings: SU-DHL-6 cell line (FIG. 4)
[5] = test system: multiple myeloma model derived from H929 cell line; experiment: mouse model of multiple myeloma (H929); format: in vivo; settings: H929 cell line (FIG. 5)
[6] = test system: human erythroleukemia model derived from HEL cell line; experiment: mouse model of human erythroleukemia (HEL); format: in vivo; settings: HEL cell line (FIG. 6)
[7] = test system: Pfeiffer ("Parental") DLBCL cell line; experiment: cell proliferation, Pfeiffer parental; format: cell-based; settings: Homo sapiens
Method: (§1) This activity of ASN002 was assessed using a diffuse large B-cell lymphoma (DLBCL) cell line, Pfeiffer (“Parental”); and an ibrutinib-resistant variant of the same cell line (“Ibrutinib-R”), which was developed by growing the cells in the presence of increasing concentrations of ibrutinib. Pools of ibrutinib-resistant cells were tested in this study. The drug idelalisib (which was approved by the FDA in […] for the treatment of B-cell blood cancers) was used for comparison as a reference compound. The data are set forth in Table A (IC50 is the half maximal inhibitory concentration).

[8] = test system: ibrutinib-resistant variant of Pfeiffer ("Ibrutinib-R"); experiment: cell proliferation, ibrutinib-resistant Pfeiffer; format: cell-based; settings: Homo sapiens, pools of resistant cells
Method: as §1

5637 = experiment: antiproliferative activity, solid tumor cell line; format: cell-based; settings: 5637, Bladder
Method: (§2) Example 2. The Anti-Cancer Activity of ASN002 was Also Evaluated in Many Solid Tumor Cell Lines.

A375 = experiment: antiproliferative activity, solid tumor cell line; format: cell-based; settings: Homo sapiens, A-375; A375, Melanoma
Method: as §2

A549 = experiment: antiproliferative activity, solid tumor cell line; format: cell-based; settings: Homo sapiens; A549, Lung
Method: as §2

AsPC1 = experiment: antiproliferative activity, solid tumor cell line; format: cell-based; settings: Homo sapiens; AsPC1, Pancreas
Method: as §2

BT20 = experiment: antiproliferative activity, solid tumor cell line; format: cell-based; settings: Homo sapiens, BT-20; BT20, Breast
Method: as §2

BT474 = experiment: antiproliferative activity, solid tumor cell line; format: cell-based; settings: Homo sapiens, BT-474; BT474, Breast
Method: as §2

BxPC3 = experiment: antiproliferative activity, solid tumor cell line; format: cell-based; settings: Homo sapiens, BXPC-3; BxPC3, Pancreas
Method: as §2

C33A = experiment: antiproliferative activity, solid tumor cell line; format: cell-based; settings: Homo sapiens, C-33-A, Cervical
Method: as §2

CAOV3 = experiment: antiproliferative activity, solid tumor cell line; format: cell-based; settings: Homo sapiens, Caov-3; CAOV3, Ovary
Method: as §2

CFPac1 = experiment: antiproliferative activity, solid tumor cell line; format: cell-based; settings: Homo sapiens, CFPAC-1; CFPac1, Pancreas
Method: as §2

Caki1 = experiment: antiproliferative activity, solid tumor cell line; format: cell-based; settings: Homo sapiens, CAKI-1; Caki1, Kidney
Method: as §2

Colo205 = experiment: antiproliferative activity, solid tumor cell line; format: cell-based; settings: Homo sapiens, COLO 205; Colo205, Colon
Method: as §2

DU145 = experiment: antiproliferative activity, solid tumor cell line; format: cell-based; settings: Homo sapiens, DU-145; DU145, Prostate
Method: as §2

EAhy296 = experiment: antiproliferative activity, solid tumor cell line; format: cell-based; settings: EAhy296, Endothelial
Method: as §2

H1299 = experiment: antiproliferative activity, solid tumor cell line; format: cell-based; settings: Homo sapiens, NCI-H1299; H1299, Lung
Method: as §2

H1581 = experiment: antiproliferative activity, solid tumor cell line; format: cell-based; settings: Homo sapiens, NCI-H1581; H1581, Lung
Method: as §2

H1975 = experiment: antiproliferative activity, solid tumor cell line; format: cell-based; settings: Homo sapiens, NCI-H1975; H1975, Lung
Method: as §2

H460 = experiment: antiproliferative activity, solid tumor cell line; format: cell-based; settings: Homo sapiens, NCI-H460; H460, Lung
Method: as §2

HCC1806 = experiment: antiproliferative activity, solid tumor cell line; format: cell-based; settings: Homo sapiens; HCC1806, Breast
Method: as §2

HCC1937 = experiment: antiproliferative activity, solid tumor cell line; format: cell-based; settings: Homo sapiens; HCC1937, Breast
Method: as §2

HCC1954 = experiment: antiproliferative activity, solid tumor cell line; format: cell-based; settings: Homo sapiens; HCC1954, Breast
Method: as §2

HCT116 = experiment: antiproliferative activity, solid tumor cell line; format: cell-based; settings: Homo sapiens, HCT-116; HCT116, Colon
Method: as §2

HT1197 = experiment: antiproliferative activity, solid tumor cell line; format: cell-based; settings: Homo sapiens; HT1197, Bladder
Method: as §2

HT1376 = experiment: antiproliferative activity, solid tumor cell line; format: cell-based; settings: Homo sapiens, HT-1376; HT1376, Bladder
Method: as §2

HT29 = experiment: antiproliferative activity, solid tumor cell line; format: cell-based; settings: Homo sapiens, HT-29; HT29, Colon
Method: as §2

HUG1N = experiment: antiproliferative activity, solid tumor cell line; format: cell-based; settings: Gasrtic
Method: as §2

HeLa = experiment: antiproliferative activity, solid tumor cell line; format: cell-based; settings: Homo sapiens, Cervical
Method: as §2

Hec1A = experiment: antiproliferative activity, solid tumor cell line; format: cell-based; settings: Homo sapiens, HEC-1-A, Endometrial
Method: as §2

HepG2 = experiment: antiproliferative activity, solid tumor cell line; format: cell-based; settings: Homo sapiens; HepG2, Liver
Method: as §2

J82 = experiment: antiproliferative activity, solid tumor cell line; format: cell-based; settings: Homo sapiens; J82, Bladder
Method: as §2

JEG3 = experiment: antiproliferative activity, solid tumor cell line; format: cell-based; settings: Homo sapiens, JEG-3; JEG3, Placenta
Method: as §2

KE39 = experiment: antiproliferative activity, solid tumor cell line; format: cell-based; settings: KE39, Gastric
Method: as §2

LNCaP = experiment: antiproliferative activity, solid tumor cell line; format: cell-based; settings: Homo sapiens, Prostate
Method: as §2

LoVo = experiment: antiproliferative activity, solid tumor cell line; format: cell-based; settings: Homo sapiens, Colon
Method: as §2

MCF7 = experiment: antiproliferative activity, solid tumor cell line; format: cell-based; settings: Homo sapiens; MCF7, Breast
Method: as §2

MDA-MB-231 = experiment: antiproliferative activity, solid tumor cell line; format: cell-based; settings: Homo sapiens; MDA-MB-231, Breast
Method: as §2

MDAMB361 = experiment: antiproliferative activity, solid tumor cell line; format: cell-based; settings: Homo sapiens, MDA-MB-361; MDAMB361, Breast
Method: as §2

MDAMB453 = experiment: antiproliferative activity, solid tumor cell line; format: cell-based; settings: Homo sapiens, MDA-MB-453; MDAMB453, Breast
Method: as §2

MDAMB468 = experiment: antiproliferative activity, solid tumor cell line; format: cell-based; settings: Homo sapiens, MDA-MB-468; MDAMB468, Breast
Method: as §2

MFE296 = experiment: antiproliferative activity, solid tumor cell line; format: cell-based; settings: Homo sapiens, MFE-296; MFE296, Endometrial
Method: as §2

MFM-223 = experiment: antiproliferative activity, solid tumor cell line; format: cell-based; settings: Homo sapiens; MFM-223, Breast
Method: as §2

MIAPACA2 = experiment: antiproliferative activity, solid tumor cell line; format: cell-based; settings: Homo sapiens, MIA PaCa-2; MIAPACA2, Pancreas
Method: as §2

MKN1 = experiment: antiproliferative activity, solid tumor cell line; format: cell-based; settings: Homo sapiens, MKN-1; MKN1, Gastric
Method: as §2

PC3 = experiment: antiproliferative activity, solid tumor cell line; format: cell-based; settings: Homo sapiens, PC-3; PC3, Prostate
Method: as §2

SCaBER = experiment: antiproliferative activity, solid tumor cell line; format: cell-based; settings: Homo sapiens, Bladder
Method: as §2

SKHEP1 = experiment: antiproliferative activity, solid tumor cell line; format: cell-based; settings: Homo sapiens, SK-HEP1; SKHEP1, Endothelial
Method: as §2

SKMEL28 = experiment: antiproliferative activity, solid tumor cell line; format: cell-based; settings: Homo sapiens, SK-MEL-28; SKMEL28, Melanoma
Method: as §2

SKMEL2 = experiment: antiproliferative activity, solid tumor cell line; format: cell-based; settings: Homo sapiens, SK-MEL-2; SKMEL2, Melanoma
Method: as §2

SKOV3 = experiment: antiproliferative activity, solid tumor cell line; format: cell-based; settings: Homo sapiens, SK-OV-3; SKOV3, Ovarian
Method: as §2

SW1990 = experiment: antiproliferative activity, solid tumor cell line; format: cell-based; settings: Homo sapiens; SW1990, Pancreas
Method: as §2

SW480 = experiment: antiproliferative activity, solid tumor cell line; format: cell-based; settings: Homo sapiens; SW480, Colon
Method: as §2

SW780 = experiment: antiproliferative activity, solid tumor cell line; format: cell-based; settings: Homo sapiens; SW780, Bladder
Method: as §2

T24 = experiment: antiproliferative activity, solid tumor cell line; format: cell-based; settings: Homo sapiens, T-24; T24, Bladder
Method: as §2

TCCSUP = experiment: antiproliferative activity, solid tumor cell line; format: cell-based; settings: Homo sapiens, TCC-SUP, Bladder
Method: as §2

U87MG = experiment: antiproliferative activity, solid tumor cell line; format: cell-based; settings: Homo sapiens, U-87 MG, Glioblastoma
Method: as §2

UMUC3 = experiment: antiproliferative activity, solid tumor cell line; format: cell-based; settings: Homo sapiens; UMUC3, Bladder
Method: as §2

Y79 = experiment: antiproliferative activity, solid tumor cell line; format: cell-based; settings: Homo sapiens; Y79, Retiblastoma
Method: as §2

ZR75 = experiment: antiproliferative activity, solid tumor cell line; format: cell-based; settings: ZR75, Breast
Method: as §2

`N#CCC1CCN(c2nc(Nc3ccc(N4CCC(O)CC4)cc3)c3c(=O)[nH]ncc3n2)CC1` [ASN002, 2-(1-(4-((4-(4-hydroxypiperidin-1-yl)phenyl)amino)-5-oxo-5,6-dihydropyrimido[4,5-d]pyridazin-2-yl)piperidin-4-yl)acetonitrile] was tested, and the pEC50 [1] was 6.92, the antiproliferative activity [2] was “strong antiproliferative activity” and the tumor growth [3] was “inhibited tumor growth”. The tumor growth [4] was “inhibited tumor growth”, the tumor growth [5] was “inhibited tumor growth” and the hind limb paralysis [6] was “delayed the hind limb paralysis”. The pIC50 [7] was 7.10, the pIC50 [8] was 6.49 and the pIC50 5637 was 6.38. The pIC50 (A375) was 6.21, the pIC50 (A549) was 6.34 and the pIC50 (AsPC1) was 6.08. The pIC50 (BT20) was 5.67, the pIC50 (BT474) was under 5.00 and the pIC50 (BxPC3) was 6.18. It also gave a pIC50 (C33A) of 6.30, a pIC50 (CAOV3) of 6.38 and a pIC50 (CFPac1) of 6.07. It also gave a pIC50 (Caki1) of 6.48, a pIC50 (Colo205) of 6.21 and a pIC50 (DU145) of 6.00. The pIC50 (EAhy296) was 5.74, the pIC50 (H1299) was under 5.00 and the pIC50 (H1581) was 6.42. It also gave a pIC50 (H1975) of 6.07, a pIC50 (H460) of 6.04 and a pIC50 (HCC1806) of 5.79. It also gave a pIC50 (HCC1937) of under 5.00, a pIC50 (HCC1954) of under 5.00 and a pIC50 (HCT116) of 6.37. It also gave a pIC50 (HT1197) of 6.27, a pIC50 (HT1376) of 7.05 and a pIC50 (HT29) of 6.52. The pIC50 (HUG1N) was 6.09, the pIC50 (HeLa) was 6.11 and the pIC50 (Hec1A) was 6.18. For the same compound, the pIC50 (HepG2) was 6.62, the pIC50 (J82) was 5.56 and the pIC50 (JEG3) was under 5.00. The pIC50 (KE39) was 6.07, the pIC50 (LNCaP) was 5.97 and the pIC50 (LoVo) was 6.82. For the same compound, the pIC50 (MCF7) was 6.22, the pIC50 (MDA-MB-231) was 6.11 and the pIC50 (MDAMB361) was 6.31. For the same compound, the pIC50 (MDAMB453) was 5.76, the pIC50 (MDAMB468) was 5.84 and the pIC50 (MFE296) was 6.06. The pIC50 (MFM-223) was 6.40, the pIC50 (MIAPACA2) was 5.56 and the pIC50 (MKN1) was 6.06. For the same compound, the pIC50 (PC3) was 5.70, the pIC50 (SCaBER) was 6.35 and the pIC50 (SKHEP1) was under 5.00. It also gave a pIC50 (SKMEL28) of under 5.00, a pIC50 (SKMEL2) of 5.99 and a pIC50 (SKOV3) of 6.14. For the same compound, the pIC50 (SW1990) was 5.79, the pIC50 (SW480) was 6.22 and the pIC50 (SW780) was under 5.00. The pIC50 (T24) was 6.36, the pIC50 (TCCSUP) was 6.47 and the pIC50 (U87MG) was under 5.00. It also gave a pIC50 (UMUC3) of 5.64, a pIC50 (Y79) of under 5.00 and a pIC50 (ZR75) of 6.38.
